Where two headings read alike, the source gives them in different places. No end group written: not given here.

Assay [1] deals with T1, recombinant human PD-L1 ECD protein (Homo sapiens, UniProt Q9NZQ7).
T1 construct: the recombinant human PD-L1 ECD protein were evaluated using SPR; purchased G&P Biosciences FCL0784B
Nature of the assay: SPR binding to human PD-L1. Conditions: for kon: read-out: Ka. As to the method: Binding affinities of the PD-L1 specific peptides for human PD-L1 protein were determined by SPR (BI4500, Biosensing Instrument). PD-L1 protein was diluted to 10 μg/mL with sodium acetate buffer (pH 5.0, GE Healthcare, PA) and covalently coated onto a CM5 sensor chip (CM Dextran Sensor Chip, Biosensing Instrument) using the standard Amine Coupling Kit (GE Healthcare, PA). Approximately 6500 RU of PD-L1 protein were immobilized onto the chip. A second channel was used as a reference. HBS-EP+ buffer (GE Healthcare) was employed at a flow rate of 60 μL/min. A series of concentrations of each peptide (15, 30, 60, 125, 250, 500, 1000, 5000 and 10,000 nM) were prepared in HBS-EP+ running buffer to obtain the equilibrium dissociation constant (KD) values of the peptides. The CM5 sensor chip was regenerated with 10 mM NaOH for 20 s. The results were analyzed using the software of Bi data analysis software.
Binding affinities of the discovered peptides against the recombinant human PD-L1 ECD protein were evaluated using SPR. The PD-L1 protein was immobilized on a CM5 golden chip by the direct amine coupling method. […] Even though the binding affinity of peptides are generally lower than that of antibodies, the very high affinity of antibodies may result in on-target, off-tumor toxicity in healthy tissues that express low levels of PD-L1. In a recent study, scientists constructed several chimeric antigen receptor (CAR) T cells with different affinities to ICAM-1. […] CAR-T cells with nanomolar affinity lyse healthy cells that express a low level of ICAM-1. By contrast, CAR-T cells with micromolar affinity only attack tumor cells with high levels of ICAM-1 but not healthy cells with low levels of ICAM-1, leading to less toxicity.

The target in assay [2] is T2, human PD-1/PD-L1 interaction (hPD-L1 protein) (Homo sapiens, UniProt Q9NZQ7).
T2 construct: G&P Biosciences, human PD-L1 ECD, cat# FCL0784B; purchased G&P Biosciences FCL0784B (PD-L1)
Nature of the assay: Blockade of the human PD-1/PD-L1 interaction, plate coated with human PD-L1 protein. The class given is biochemical. Particulars: for Block Efficiency: hPD-L1 protein, blocking profile (Fig. 2d, e). As to the method: (§1) Ninety-six-well plates were coated with 100 ng of PD-L1 protein (G&P Biosciences, human PD-L1 ECD, cat# FCL0784B. mouse PD-L1, cat# FCL3502B) and later blocked with 2% BSA for 2 h at room temperature. Various concentrations of peptides were loaded into the wells and incubated for 1 h at room temperature. […] Streptavidin-HRP (R&D systems) and chromogenic substrate were added into the wells. OD450 was then recorded and referenced to OD540.
(§2) We next examined the blocking efficiency of the anti-PD-L1 peptides at 10 μM (Fig. 2c). […] We also determined IC50 of each peptide using recombinant human PD-L1 protein and DU-145 cancer cells.

Assay [3] has as its target T3, PD-1/PD-L1 interaction on DU-145 cells (Homo sapiens, UniProt Q9NZQ7).
T3 construct: when the plate was coated with DU-145 cells; endogenous in cells; host or cells: DU-145
Briefly: Blockade of the PD-1/PD-L1 interaction, plate coated with DU-145 cells. The class given is cell-based. Conditions: for Block Efficiency: DU145 cancer cells, blocking profile (Fig. 2d, f). As to the method:
as §1, §2

Assay [4] has as its target T4, mouse PD-1/PD-L1 interaction (mPD-L1 protein) (Mus musculus, UniProt Q9EP73).
T4 construct: purchased G&P Biosciences FCL3502B (PD-L1)
Briefly: Blockade of the mouse PD-1/PD-L1 interaction, mouse PD-L1 protein. The class given is biochemical. Particulars: for Block Efficiency: mPD-L1 protein, blocking profile (Fig. 2h, i). As to the method: as §1
By contrast, the blocking efficiency of the anti-mouse PD-L1 antibody was 92%.

Assay [5] deals with T5, PD-1/PD-L1 interaction on mouse cancer cell line 4 T1 (Mus musculus, UniProt Q9EP73).
T5 construct: endogenous in cells; host or cells: 4T1
Briefly: Blockade of the PD-1/PD-L1 interaction on 4T1 cells. Particulars: for Block Efficiency: blocking profile (Fig. 2h, j). The class given is cell-based.

For assay [6], the target named is human PD-L1/CD80 interaction (Homo sapiens, UniProt Q9NZQ7). Briefly: Blockade of the CD80/PD-L1 interaction. It counts as biochemical. Conditions: for blocking efficiency, CD80/PD-L1: 10 μM. The text has this:
The CD80/PD-L1 interaction specifically restrains T cell activation, and blockade of the interaction could enhance the anti-tumor activity of the T cells. […] We, therefore, investigated whether the anti-PD-L1 peptides block the CD80/PD-L1 interaction.
Supplementary file 40425_2019_705_MOESM1_ESM.png: Additional file 1: Figure S1. Blockade of the PD-L1/CD80 interaction by anti-PD-L1 peptides and antibody. […] IC50 and blocking efficiency of CLP002 (b) and CLP003 (c) against the human PD-L1/CD80 interaction. Results are represented as the mean ± SD (n = 3).

T3 sequence (Q9NZQ7 19-290): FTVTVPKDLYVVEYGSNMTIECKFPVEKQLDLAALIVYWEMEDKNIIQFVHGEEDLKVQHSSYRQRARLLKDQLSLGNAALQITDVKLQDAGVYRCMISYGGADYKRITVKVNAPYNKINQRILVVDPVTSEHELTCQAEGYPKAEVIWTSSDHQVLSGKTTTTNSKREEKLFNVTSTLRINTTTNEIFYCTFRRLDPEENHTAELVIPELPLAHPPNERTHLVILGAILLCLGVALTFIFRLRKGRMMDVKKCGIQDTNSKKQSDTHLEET
human PD-L1/CD80 interaction, sequence (Q9NZQ7 19-238 limits assumed): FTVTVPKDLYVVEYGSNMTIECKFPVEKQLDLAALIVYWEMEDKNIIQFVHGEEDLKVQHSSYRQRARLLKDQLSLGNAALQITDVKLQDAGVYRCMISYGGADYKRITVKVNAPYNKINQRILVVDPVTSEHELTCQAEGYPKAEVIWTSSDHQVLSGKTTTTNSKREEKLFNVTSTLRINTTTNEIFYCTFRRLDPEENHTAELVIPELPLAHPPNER
T2 sequence (Q9NZQ7 19-238 limits assumed): as above
T1 sequence (Q9NZQ7 19-238 limits assumed): as above
T4 sequence (Q9EP73 19-239 limits assumed): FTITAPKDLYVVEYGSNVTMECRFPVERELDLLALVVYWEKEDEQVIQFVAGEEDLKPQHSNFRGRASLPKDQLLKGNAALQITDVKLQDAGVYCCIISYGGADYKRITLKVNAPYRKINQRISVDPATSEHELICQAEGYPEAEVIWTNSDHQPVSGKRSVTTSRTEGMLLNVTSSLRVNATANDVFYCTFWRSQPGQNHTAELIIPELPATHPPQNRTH
T5 sequence (Q9EP73 19-290): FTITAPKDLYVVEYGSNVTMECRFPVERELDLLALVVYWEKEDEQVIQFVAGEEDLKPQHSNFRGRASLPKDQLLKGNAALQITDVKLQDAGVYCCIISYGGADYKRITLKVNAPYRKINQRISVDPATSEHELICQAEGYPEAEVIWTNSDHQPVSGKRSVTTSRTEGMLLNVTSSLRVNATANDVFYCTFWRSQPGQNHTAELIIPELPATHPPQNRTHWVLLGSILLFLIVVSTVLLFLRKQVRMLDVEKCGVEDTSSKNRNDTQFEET

DYHDPSLPTLRK [CLP004]: in assay [1], the kon was 5140 ± 390 M⁻¹ s⁻¹. Moreover, the “Block Efficiency” value was found to be 52% in assay [2], 60% in assay [3], 48% in assay [4] and 34% in assay [5] (4T1 cancer cells). In addition, the IC50 is 200 nM in assay [3] (DU145 cancer cells coated on the plate) and 730 nM in assay [5] (4T1 cancer cells). Besides, in assay [6], the “blocking efficiency, CD80/PD-L1” value is listed as roughly 27%.
Consider HYPFRPHANQAS [CLP001], for which, in assay [1], the kon was 5190 ± 212 M⁻¹ s⁻¹. For the same sequence, the “Block Efficiency” value in assay [2] was found to be 0%; in assay [3] it was 0%; in assay [4], 34%; in assay [5] (4T1 cancer cells) it was 35%. This sequence came in with an IC50 in assay [5] (4T1 cancer cells) of 910 nM. In assay [6], the “blocking efficiency, CD80/PD-L1” value is on record as “approximately 17%”.
Consider WHFSYNWRWLPP [CLP003], for which the kon in assay [1] was determined as 22600 M⁻¹ s⁻¹.
Consider WHRSYYTWNLNT [CLP002], for which the Kd in assay [1] (SPR, human PD-L1 immobilized on CM5 chip (~6500 RU), HBS-EP+, 60 μL/min, peptide 15-10,000 nM, mean ± SD (n = 3)) was 366 nM. For the same sequence, the kon in assay [1] stood at 4520 ± 666 M⁻¹ s⁻¹. The IC50 in assay [2] was determined as 2170 nM; in assay [3], 1430 nM; in assay [4] it was 1910 nM; in assay [5], 2440 nM; in assay [6], 2450 nM. The “Block Efficiency” value in assay [2] amounted to 85%; in assay [3], 80%; in assay [4] it was 68%; in assay [5] (4T1 cancer cells) it was 61%. This sequence also had a blocking efficiency in assay [4] (10 μM, mouse PD-L1 protein (Fig. 2g)) of 71%. The “blocking efficiency, CD80/PD-L1” value in assay [6] is roughly 48%.

Usually IC50 stands for the midpoint of a concentration-inhibition curve. A higher IC50 goes with lower potency. The Kd is the constant that tells how readily two partners part at equilibrium.
